Assay results published in US9169254B2, “Spiroimidazolone derivative” (Chugai Seiyaku Kabushiki Kaisha, priority 2009, dated 2015).

Biological target: T1, human PTH1 receptor (Homo sapiens, UniProt Q03431)
T1 sequence (Q03431 27-593): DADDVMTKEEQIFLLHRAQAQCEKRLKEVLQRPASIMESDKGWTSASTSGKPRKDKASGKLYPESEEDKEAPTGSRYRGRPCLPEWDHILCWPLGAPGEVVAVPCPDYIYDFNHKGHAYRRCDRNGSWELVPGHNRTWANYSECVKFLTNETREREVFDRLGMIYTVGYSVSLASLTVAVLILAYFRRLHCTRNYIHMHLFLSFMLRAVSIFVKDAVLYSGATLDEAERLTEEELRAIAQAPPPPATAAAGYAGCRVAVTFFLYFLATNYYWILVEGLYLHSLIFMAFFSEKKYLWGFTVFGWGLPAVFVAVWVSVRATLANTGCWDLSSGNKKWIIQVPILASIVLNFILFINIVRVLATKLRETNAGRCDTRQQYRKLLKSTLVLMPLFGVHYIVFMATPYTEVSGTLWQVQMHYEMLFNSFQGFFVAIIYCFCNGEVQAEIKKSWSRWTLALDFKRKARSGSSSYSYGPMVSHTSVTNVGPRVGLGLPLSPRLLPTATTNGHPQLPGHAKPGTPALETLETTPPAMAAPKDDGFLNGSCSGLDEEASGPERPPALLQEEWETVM
Assay: In vitro cAMP signal activity in HKRK-B7 cells (LLC-PK1 cells overexpressing the human PTH1 receptor)
Assay type: cell-based
Conditions: HKRK-B7 cells; compound at 1×10^−3 M; cAMP produced as percentage of that produced by hPTH(1-34) at 100 nM

Row | SMILES | cAMP production activity (%)
1 | CCc1cc(N(C)C(N)=O)ccc1/C=C/S(=O)(=O)N1CCC2(CC1)N=C(C1CCC(C)CC1)NC2=O (centres unmarked) [Compound 727, 1-(3-ethyl-4-{(E)-2-[2-(4-methyl-cyclohexyl)-4-oxo-1,3,8-triaza-spiro[4.5]dec-1-ene-8-sulfonyl]-vinyl}-phenyl)-1-methyl-urea] | 52
2 | CC(=O)Nc1cccc(C)c1/C=C/S(=O)(=O)N1CCC2(CC1)N=C(C1CCCCC1)NC2=O [Compound 190, N-{2-[(E)-2-(2-cyclohexyl-4-oxo-1,3,8-triaza-spiro[4.5]dec-1-ene-8-sulfonyl)-vinyl]-3-methyl-phenyl}-acetamide] | 61
3 | Cc1cc(N(C)C(N)=O)cc(C)c1/C=C/S(=O)(=O)N1CCC2(CC1)N=C(CCCCCCCCCCCNC(=O)OC(C)(C)C)NC2=O [Compound 1308, [11-(8-{(E)-2-[2,6-dimethyl-4-(1-methyl-ureido)-phenyl]-ethenesulfonyl}-4-oxo-1,3,8-triaza-spiro[4.5]dec-1-en-2-yl)-undecyl]-carbamic acid tert-butyl ester] | 102
4 | Cc1cc(C(=O)N2CCC(C)(O)CC2)cc(C)c1/C=C/S(=O)(=O)N1CCC2(CC1)N=C(c1ccc(C(F)(F)F)c(Cl)c1)NC2=O [Compound 1188, 2-(3-chloro-4-trifluoromethyl-phenyl)-8-{(E)-2-[4-(4-hydroxy-4-methyl-piperidine-1-carbonyl)-2,6-dimethyl-phenyl]-ethenesulfonyl}-1,3,8-triaza-spiro[4.5]dec-1-en-4-one] | 99
5 | CC1(C)OCC(Cn2ccc3c(/C=C/S(=O)(=O)N4CCC5(CC4)N=C(C4CCOCC4)NC5=O)cccc32)O1 (centres unmarked) [Compound 246, 8-{(E)-2-[1-(2,2-dimethyl-[1,3]dioxolan-4-ylmethyl)-1H-indol-4-yl]-ethenesulfonyl}-2-(tetrahydro-pyran-4-yl)-1,3,8-triaza-spiro[4.5]dec-1-en-4-one] | 39
6 | Cc1cc(C(=O)N2CCC(O)CC2)cc(C)c1CCS(=O)(=O)N1CCC2(CC1)N=C(c1ccc(F)c(OC(F)(F)F)c1)NC2=O [Compound 1334, 2-(4-fluoro-3-trifluoromethoxy-phenyl)-8-{2-[4-(4-hydroxy-piperidine-1-carbonyl)-2,6-dimethyl-phenyl]-ethanesulfonyl}-1,3,8-triaza-spiro[4.5]dec-1-en-4-one] | 116
7 | CC(=O)N(c1cc(C)c(/C=C/S(=O)(=O)N2CCC3(CC2)N=C(C2CCCCC2)NC3=O)c(C)c1)C1CCC(O)CC1 (centres unmarked) [Compound 709, N-{4-[(E)-2-(2-cyclohexyl-4-oxo-1,3,8-triaza-spiro[4.5]dec-1-ene-8-sulfonyl)-vinyl]-3,5-dimethyl-phenyl}-N-(4-hydroxy-cyclohexyl)-acetamide] | 58
8 | Cc1cc(N2C(=O)CNC2=O)cc(C)c1CCS(=O)(=O)N1CCC2(CC1)N=C(C1CCC(C(C)C)CC1)NC2=O (centres unmarked) [Compound 884, 3-(4-{2-[2-(4-isopropyl-cyclohexyl)-4-oxo-1,3,8-triaza-spiro[4.5]dec-1-ene-8-sulfonyl]-ethyl}-3,5-dimethyl-phenyl)-imidazolidine-2,4-dione] | 59
9 | O=C1NC(c2cccc(C(F)(F)F)c2)=NC12CCN(S(=O)(=O)CCc1cccc3c1ccn3C[C@H](O)CO)CC2 [Compound 840, 8-{2-[1-((S)-2,3-dihydroxy-propyl)-1H-indol-4-yl]-ethanesulfonyl}-2-(3-trifluoromethyl-phenyl)-1,3,8-triaza-spiro[4.5]dec-1-en-4-one] | 98
10 | CCCCCCCCCC1=NC2(CCN(S(=O)(=O)/C=C/c3ccc(N4C(=O)CNC4=O)cc3C)CC2)C(=O)N1 [Compound 536, 3-{3-Methyl-4-[(E)-2-(2-nonyl-4-oxo-1,3,8-triaza-spiro[4.5]dec-1-ene-8-sulfonyl)-vinyl]-phenyl}-imidazolidine-2,4-dione] | 72
11 | CCC1CCC(C2=NC3(CCN(S(=O)(=O)CCc4cc(Cl)c(NC(C)=O)cc4C)CC3)C(=O)N2)CC1 (centres unmarked) [Compound 953, N-(2-Chloro-4-{2-[2-(4-ethyl-cyclohexyl)-4-oxo-1,3,8-triaza-spiro[4.5]dec-1-ene-8-sulfonyl]-ethyl}-5-methyl-phenyl)-acetamide] | 77
12 | Cc1cc(CNC(=O)OC(C)(C)C)ccc1CCS(=O)(=O)N1CCC2(CC1)N=C(C1CCOCC1)NC2=O [Compound 165, (3-methyl-4-{2-[4-oxo-2-(tetrahydro-pyran-4-yl)-1,3,8-triaza-spiro[4.5]dec-1-ene-8-sulfonyl]-ethyl}-benzyl)-carbamic acid tert-butyl ester] | 37
13 | O=C1NC(C2CCCN(S(=O)(=O)c3ccccc3)C2)=NC12CCN(S(=O)(=O)c1cccc(Cl)c1)CC2 (centres unmarked) [Compound 41, 2-(1-benzenesulfonyl-piperidin-3-yl)-8-(3-chloro-benzenesulfonyl)-1,3,8-triaza-spiro[4.5]dec-1-en-4-one] | 21
14 | Cc1cc(C(=O)N2CCCO2)cc(C)c1CCS(=O)(=O)N1CCC2(CC1)N=C(C1CCC(CCC(F)(F)F)CC1)NC2=O (centres unmarked) [Compound 1181, 8-{2-[4-(isoxazolidine-2-carbonyl)-2,6-dimethyl-phenyl]-ethanesulfonyl}-2-[4-(3,3,3-trifluoro-propyl)-cyclohexyl]-1,3,8-triaza-spiro[4.5]dec-1-en-4-one] | 98
15 | O=C(CO)N1CCCC(C2=NC3(CCN(S(=O)(=O)c4cccc(Cl)c4)CC3)C(=O)N2)C1 (centres unmarked) [Compound 424, 8-(3-chloro-benzenesulfonyl)-2-[1-(2-hydroxy-acetyl)-piperidin-3-yl]-1,3,8-triaza-spiro[4.5]dec-1-en-4-one] | 2.5
16 | Cc1cc(S(=O)(=O)NC[C@@H](O)CO)ccc1/C=C/S(=O)(=O)N1CCC2(CC1)N=C(c1cccc(OC(F)(F)F)c1)NC2=O [Compound 599, N—((R)-2,3-dihydroxy-propyl)-3-methyl-4-{(E)-2-[4-oxo-2-(3-trifluoromethoxy-phenyl)-1,3,8-triaza-spiro[4.5]dec-1-ene-8-sulfonyl]-vinyl}-benzenesulfonamide] | 59
17 | Cc1cc(N2CCCCC2=O)cc(C)c1/C=C/S(=O)(=O)N1CCC2(CC1)N=C(C1CCC(C)CC1)NC2=O (centres unmarked) [Compound 516, 8-{(E)-2-[2,6-dimethyl-4-(2-oxo-piperidin-1-yl)-phenyl]-ethenesulfonyl}-2-(4-methyl-cyclohexyl)-1,3,8-triaza-spiro[4.5]dec-1-en-4-one] | 73
18 | Cc1cc(N2C(=O)CNC2=O)ccc1CCS(=O)(=O)N1CCC2(CC1)N=C(C1CC(C)(C)CC(C)(C)C1)NC2=O [Compound 952, 3-(3-methyl-4-{2-[4-oxo-2-(3,3,5,5-tetramethyl-cyclohexyl)-1,3,8-triaza-spiro[4.5]dec-1-ene-8-sulfonyl]-ethyl}-phenyl)-imidazolidine-2,4-dione] | 95
19 | Cc1cc(C(=O)N2CCS(=O)(=O)CC2)cc(C)c1/C=C/S(=O)(=O)N1CCC2(CC1)N=C(C1CCC(C)CC1)NC2=O (centres unmarked) [Compound 1002, 8-{(E)-2-[4-(1,1-dioxo-1λ^6-thiomorpholine-4-carbonyl)-2,6-dimethyl-phenyl]-ethenesulfonyl}-2-(4-methyl-cyclohexyl)-1,3,8-triaza-spiro[4.5]dec-1-en-4-one] | 50
20 | Cc1cc(C(=O)N2CCC3(CC2)COC3)cc(C)c1CCS(=O)(=O)N1CCC2(CC1)N=C(c1ccc(F)c(C(F)(F)F)c1)NC2=O [Compound 804, 8-{2-[2,6-dimethyl-4-(2-oxa-7-aza-spiro[3.5]nonane-7-carbonyl)-phenyl]-ethanesulfonyl}-2-(4-fluoro-3-trifluoromethyl-phenyl)-1,3,8-triaza-spiro[4.5]dec-1-en-4-one] | 78
21 | Cc1cc(NCC(=O)N2CCN(C)CC2)ccc1CCS(=O)(=O)N1CCC2(CC1)N=C(c1cccc(OC(F)(F)F)c1)NC2=O [Compound 845, 8-(2-{2-methyl-4-[2-(4-methyl-piperazin-1-yl)-2-oxo-ethylamino]-phenyl}-ethanesulfonyl)-2-(3-trifluoromethoxy-phenyl)-1,3,8-triaza-spiro[4.5]dec-1-en-4-one] | 68
22 | CC(=O)N(CCO)c1cc(C)c(CCS(=O)(=O)N2CCC3(CC2)N=C(c2ccc(F)c(C(F)(F)F)c2)NC3=O)c(C)c1 [Compound 794, N-(4-{2-[2-(4-fluoro-3-trifluoromethyl-phenyl)-4-oxo-1,3,8-triaza-spiro[4.5]dec-1-ene-8-sulfonyl]-ethyl}-3,5-dimethyl-phenyl)-N-(2-hydroxy-ethyl)-acetamide] | 76
23 | Cc1cc(N2C(=O)NC(C)(C)C2=O)ccc1/C=C/S(=O)(=O)N1CCC2(CC1)N=C(C1CCC(CCC(F)(F)F)CC1)NC2=O (centres unmarked) [Compound 540, 5,5-Dimethyl-3-[3-methyl-4-((E)-2-{4-oxo-2-[4-(3,3,3-trifluoro-propyl)-cyclohexyl]-1,3,8-triaza-spiro[4.5]dec-1-ene-8-sulfonyl}-vinyl)-phenyl]-imidazolidine-2,4-dione] | 22
